Where two headings read alike, the source gives them in different places. One block for each molecule: values may come before it.
Legend:
LIN28 [1] = test system: LIN28; set-up: method as in PMID 27548809; details: reported value; read-out: IC50 (ELISA); cited from earlier work
LIN28–let-7 interaction [2] = target: T1, LIN28–let-7 interaction (Homo sapiens, UniProt Q9H9Z2); test: Fluorescence polarization (FP) assay, LIN28A (residues 16–187) and FAM-labeled preE-let-7f-1; assay type: binding
T1 construct: Purified LIN28A (residues 16–187) was incubated at a concentration of 200 nM; His-tag (cleaved yes); made in house; host or cells: Escherichia coli BL21(DE3)
T1 sequence (Q9H9Z2 16-187): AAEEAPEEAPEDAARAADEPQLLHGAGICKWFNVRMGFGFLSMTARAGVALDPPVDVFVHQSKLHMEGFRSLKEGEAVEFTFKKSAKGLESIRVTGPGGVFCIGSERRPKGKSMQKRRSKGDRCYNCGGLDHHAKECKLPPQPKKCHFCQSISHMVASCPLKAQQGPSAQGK
Protocol: Protein expression and purification.
19 vector and overexpressed in Escherichia coli BL21(DE3). The culture was incubated at 37 °C until
the absorbance at 600 nm (OD600) reached 0.5–0.7. IPTG was added to a final concentration of
300 µM, and overnight induction was performed at 18 °C. Cells were harvested by centrifugation.
The bacterial pellet was resuspended in lysis buffer (50 mM NaH2PO4, pH 7.5, 300 mM NaCl,
0.1 mM PMSF) and lysed using a Microfluidizer (Microfluidics) . A fresh portion of 0.1 mM PMSF
and Triton X-100 (1% final concentration) were added. The lysate was cleared by ultra centrifugation
at 30000 xg and 4 °C for 1 h. The protein purification was performed using immobilized nickel
300 mM NaCl and 5 % glycerol. Gradient elution was performed with a maximum of 0.5 M imidazole.
Subsequently, the affinity tag was cleaved using His6 -TEV-protease and the protease and unspecific
binders were eliminated by a second nickel affinity chromatography. After protein concentration
LIN28A containing fractions were concentrated and applied to a High Load Superdex 75 pg 16/600
column (GE Healthcare) with gel-filtration buffer (30 mM NaH2PO4, pH 7.5, 50 mM NaCl, 5%
glycerol, 2 mM β-ME). The purified protein was concentrated and stored at -80 °C until further
Fluorescence polarization. The fluorescence polarization assay was performed in black low volume
IC50 measurements were performed with three technical
minutes with compound concentrations ranging from 0.3 nM to 100 µM in FP assay buffer (20 mM
Tris, pH 7, 100 mM NaCl, 5 mM MgCl2, 2 mM glutathione (reduced), 0.1 % NP-40). Subsequently,
FAM-labeled preE-let-7f-1 (mus musculus) ([…]-
FAM, synthesized by IDT) was added to a final concentration of 2 nM. Fluorescence polarization
(§1) was detected after incubation at room temperature using a TECAN Spark plate reader. Half maximal
inhibitory concentrations (IC50) were determined using GraphPad Prism 7. […]

LIN28 [3] = test system: LIN28; set-up: method as in PMID 27668966; details: reported value; cited from earlier work
LIN28–let-7 complex = target: T2, LIN28–let-7 complex (Homo sapiens, UniProt Q9H9Z2); test: Electrophoretic mobility shift assay (EMSA); assay type: binding; details: compound concentrations up to 75 µM
T2 construct: Purified LIN28A (residues 16–187) was incubated at a concentration of 200 nM; His-tag (cleaved yes); made in house; host or cells: Escherichia coli BL21(DE3)
T2 sequence (Q9H9Z2 16-187): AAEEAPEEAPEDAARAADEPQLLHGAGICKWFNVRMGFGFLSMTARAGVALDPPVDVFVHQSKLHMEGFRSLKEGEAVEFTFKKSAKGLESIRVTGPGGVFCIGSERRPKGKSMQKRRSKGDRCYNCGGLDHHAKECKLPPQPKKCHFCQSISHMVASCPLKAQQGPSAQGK
Protocol: as §1
inhibitory concentrations (IC50) were determined using GraphPad Prism 7.
Compound screening. High throughput screening was performed in low volume 384 well plates
(Corning 4514) with 30 µM compound, 40 nM LIN28A, and 2 nM preE-let-7f-1-FAM in FP assay
buffer. Compounds were transferred with an ECHO 520 liquid handler and protein and RNA were
added with a multidrop dispenser. Protein and RNA were added stepwise with a 30 min incubation
period in between. FP was detected after a final incubation of 15 min with an Envision plate reader
and fluorescence was measured with a Paradigm plate reader. A reaction without LIN28 served as a
negative control and one without compound was used as a positive control. The software Quattro
Workflow (Quattro Research GmbH) was used for the analysis of screening data.
Electrophoretic mobility shift assay. EMSA was used as a secondary assay to validate FP-assay hit
molecules. Purified LIN28A (residues 16–187) was incubated with compound and 5 U recombinant
ribonuclease inhibitor (Takara Bio) in EMSA reaction buffer (50 mM Tris (pH 7.5), 100 mM NaCl,
10 mM β-mercaptoethanol, 50 µM ZnCl2, 2 % DMSO, 0.01 % Tween 20, 12 % glycerol) for 2 hours
at room temperature. Subsequently, preE-let-7f-1-Cy3 (mus musculus) (GGGGUAGUGAUUUUAC
CCUGUUUAGGAGAU-Cy3, purchased from IDT) was added to a final concentration of 5 nM and
a reaction volume of 50 µL. The final concentration of LIN28A was 10 nM and compound
concentrations up to 75 µM were used. The reaction mixtures were incubated for a further 15 minutes
and 10 µL loading dye (40 % glycerol, 1.5x TAE) was added. 10 µL of each reaction was separated
in an 8 % polyacrylamide TAE gel at 4 °C and 220 V for 1 h using 0.25x TAE as running buffer. Cy3
fluorescence was detected with a ChemiDoc M P (Bio-Rad) and 2 minutes of exposure time.
Thermal shift assay. Thermal stability of the cold shock domain construct LIN28 A (residues 16–
126) with and without compound was monitored using a NanoTemper Prometheus NT.48 nano -

LIN28–let-7 interaction [4] = target: T1, LIN28–let-7 interaction; test: Fluorescence polarization (FP) assay, LIN28A (residues 16–187) and FAM-labeled preE-let-7f-1; assay type: binding; details: Table 1; quadruplicate; starting from 30 μM, eight concentrations; extrapolated based on the observed IC50 curves; read-out: IC50, LIN28–let-7 inhibitory activity
[5] = target: T3, LIN28A (16-187), untagged (human, UniProt Q9H9Z2 16-187); test: competition (fluorescence polarization); competes with 2 nM FAM-preE-let-7f-1; FP: 20 mM Tris pH 7, 100 mM NaCl, 5 mM MgCl2, 2 mM GSH, 0.1% NP-40 (200 nM LIN28A, 2 nM RNA in IC50 assays); EMSA: 50 mM Tris pH 7.5, 100 mM NaCl, 10 mM beta-ME, 50 uM ZnCl2, 2% DMSO, 0.01% Tween 20, 12% glycerol, 2 h, room temperature; details: protein: recombinant; tags: none (His-tag cleaved by TEV); stem loop
T3 sequence: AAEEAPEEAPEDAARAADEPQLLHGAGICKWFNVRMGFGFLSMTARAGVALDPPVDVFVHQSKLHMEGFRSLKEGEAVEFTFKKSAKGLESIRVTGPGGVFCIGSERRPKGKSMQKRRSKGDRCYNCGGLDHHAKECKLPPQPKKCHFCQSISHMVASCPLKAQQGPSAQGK

IC50 (LIN28–let-7 interaction [2]; text and figures, C-labels = library sample, PH-labels = in-house resynthesized, read-out: IC50 in the FP assay): 27 µM
Molecule: CC1(C)Oc2cc(N3CCN(C(=O)OCc4ccccc4)CC3)c([N+](=O)[O-])cc2-c2c1cnn2-c1ccc(C(=O)O)cc1 [SB1301, reference compound]
IC50 (LIN28 [3]): 4 µM

inhibition of the LIN28–let-7 complex in EMSA (LIN28–let-7 complex): did not show activity
activity in the FP assay (LIN28–let-7 interaction [2]): FP-inactive
IC50 (LIN28–let-7 interaction [4]): > 100 µM
Molecule: O=C(O)c1cccc(N2C(=O)C(O)=C(C(=O)c3ccc(Br)cc3)C2c2ccc(-c3nccs3)cc2)c1 (stereo not shown) [C903]

Further lines, the molecule ahead of its results:

Molecule: CC(=O)N(C)c1cccc(-c2ccc3nnc(C)n3n2)c1 [compound 1632]
IC50 (LIN28 [1]): 8 µM

Molecule: GGGGUAGUGAUUUUACCCUGUUUAGGAGAU (structured_RNA) [preE-let-7f-1, unlabeled]
IC50 [5]: 0.055 µM

— publication PMC8201479, “Trisubstituted Pyrrolinones as Small-Molecule Inhibitors Disrupting the Protein–RNA Interaction of LIN28 and Let-7” (ACS Medicinal Chemistry Letters, 2021)
